Experimental data as given in publication PMC7413516, “Antidepressant-like activity and safety profile evaluation of 1H-imidazo[2,1-f]purine-2,4(3H,8H)-dione derivatives as 5-HT1A receptor partial agonists” (PLoS ONE, 2020).
Values joined by “and” are separate entries in the source; they are usually repeats but may differ in a detail not shown here. Equal values may be shown once.

Tests used:
[1] = system: normotensive rats; experiment: Blood pressure measurement in normotensive anesthetized rats; assay type: in vivo, Wistar rats; details: for DBP Mean / SBP Mean: group mean; for DBP / SBP: individual rat
Method: Male Wistar normotensive rats were anesthetized with thiopental (50–75 mg/kg, i.p.). The right carotid artery was cannulated with a polyethylene tube filled with heparin in saline to facilitate pressure measurement using the Datamax apparatus (Columbus Instruments, Columbus, Ohio, USA). The studied compounds were administered after a 15-min stabilization period.

[2] = biological target: T1, human serotonin 5-HT1AR (Homo sapiens, UniProt P08908); experiment: cAMP inhibition (LANCE Ultra cAMP, forskolin-stimulated CHO-K1 cells)
T1 sequence (P08908 1-422): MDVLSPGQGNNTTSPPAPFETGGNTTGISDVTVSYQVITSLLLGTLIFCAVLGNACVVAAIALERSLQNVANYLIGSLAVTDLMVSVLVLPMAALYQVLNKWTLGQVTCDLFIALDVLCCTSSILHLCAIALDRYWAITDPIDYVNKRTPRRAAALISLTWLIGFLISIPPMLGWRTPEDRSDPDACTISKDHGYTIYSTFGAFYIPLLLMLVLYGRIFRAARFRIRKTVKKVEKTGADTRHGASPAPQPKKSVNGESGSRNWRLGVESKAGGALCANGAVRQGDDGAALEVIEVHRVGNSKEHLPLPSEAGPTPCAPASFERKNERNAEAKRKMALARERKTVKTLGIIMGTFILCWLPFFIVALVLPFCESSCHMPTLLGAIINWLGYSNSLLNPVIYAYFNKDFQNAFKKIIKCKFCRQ
Method: CHO-K1 cell line transfected with 5-HT1A receptor, were commercially obtained from Perkin Elmer (Cat. No. ES-310-C, Lot Number M2W-C1). Cells were cultured according to manufacturer’s instruction.
The cells were cultured under selective conditions (400 μg/mL Geneticin G418). Thawed cells were resuspended in stimulation buffer (HBSS, 5 mM HEPES, 0.5 IBMX, and 0.1% BSA at pH 7.4) at 2 × 10^5 cells/mL. The same volume (10 μL) of cell suspension was added to tested compounds with 10 μM forskolin. Cell stimulation was performed for 40 min at room temperature. After incubation, cAMP measurements were performed with homogeneous TR-FRET immunoassay using the LANCE Ultra cAMP kit (PerkinElmer, USA) according to the manufacturer’s instruction (PerkinElmer). The TR-FRET signal was read on an EnVision microplate reader (PerkinElmer, USA).

[3] = Plasma glucose, triglyceride and cholesterol levels after repeated administration; assay type: in vivo, Swiss albino mice; details: mice, AZ-853 0.625, AZ-861 1.25 mg/kg b.w./day
Method: The Swiss albino mice were used in the experiment. AZ-853 and AZ-861 were injected once daily for 16 consecutive days. On the 1st and 15th day the administration of the compounds, 18-h spontaneous animal activity was registered (see below). FST, as described earlier, was performed on the 14th day just before the next treatment. To ensure that the effects observed in FST are not the result of increased motility of animals, on the 13th day, just before the next administration, the locomotor activity was measured as described earlier, from 2 to 6 min after test start, i.e. in the period identical to the duration of FST. Blood and organ collection was performed on the 17th day at 24 h after the last dose and fasting.
Blood samples were collected from the Swiss albino mice 24 h after the last administration of the tested compounds or vehicle. To determine glucose, cholesterol and triglyceride levels in the plasma, standard enzymatic spectrophotometric tests (Biomaxima S.A. Lublin, Poland) were used. In the presence of appropriate enzyme, the substrate was converted to a colored compound. Absorbance was measured at a wavelength of 500 nm. To determine alanine aminotransferase (ALAT) or γ-glutamyl transpeptidase (γ-GTP) activities in the plasma, the standard enzymatic spectrophotometric test (Biomaxima S.A.) was used. Absorbance was measured at 340 nm (ALAT) or 405 nm (γ-GTP).

[4] = system: PDE4B; set-up: method as in PMID 27353547; details: in vitro, bioluminescent detection system; ref [8]; cited from earlier work

Cn1c(=O)c2c(nc3n(CCCCN4CCN(c5cccc(C(F)(F)F)c5)CC4)ccn23)n(C)c1=O [AZ-861, 1,3-dimethyl-8-(4-(4-(3-(trifluoromethyl)phenyl)piperazin-1-yl)butyl)-1H-imidazo[2,1-f]purine-2,4(3H,8H)-dione]
effect on arterial pressure ([1]; 10 mg/kg): did not significantly affect the arterial pressure | DBP Mean ([1]; time 0 min): 86.8 mmHg | SBP Mean ([1]; time 0 min): 124.2 mmHg | DBP ([1]; time 0 min): 74 mmHg and 91 mmHg and 79 mmHg and 94 mmHg and 89 mmHg | SBP ([1]; time 0 min): 113 mmHg and 124 mmHg and 105 mmHg and 134 mmHg and 135 mmHg | DBP Mean ([1]; time 5 min): 87.2 mmHg | SBP Mean ([1]; time 5 min): 122.2 mmHg | DBP ([1]; time 5 min): 91 mmHg and 76 mmHg and 84 mmHg and 93 mmHg and 98 mmHg and 81 mmHg | SBP ([1]; time 5 min): 122 mmHg and 101 mmHg and 119 mmHg and 139 mmHg and 138 mmHg and 114 mmHg | DBP Mean ([1]; time 10 min): 86.8 mmHg | SBP Mean ([1]; time 10 min): 122.3 mmHg | DBP ([1]; time 10 min): 90 mmHg and 76 mmHg and 87 mmHg and 98 mmHg and 80 mmHg | SBP ([1]; time 10 min): 120 mmHg and 102 mmHg and 124 mmHg and 139 mmHg and 136 mmHg and 113 mmHg | DBP Mean ([1]; time 15 min): 86.2 mmHg | SBP Mean ([1]; time 15 min): 123.3 mmHg | DBP ([1]; time 15 min): 90 mmHg and 77 mmHg and 89 mmHg and 94 mmHg | SBP ([1]; time 15 min): 120 mmHg and 103 mmHg and 137 mmHg and 138 mmHg and 131 mmHg and 111 mmHg | DBP Mean ([1]; time 20 min): 85.8 mmHg | SBP Mean ([1]; time 20 min): 121.8 mmHg | DBP ([1]; time 20 min): 89 mmHg and 76 mmHg and 91 mmHg and 87 mmHg and 94 mmHg | SBP ([1]; time 20 min): 118 mmHg and 100 mmHg and 138 mmHg and 139 mmHg and 128 mmHg and 109 mmHg | DBP Mean ([1]; time 30 min): 86.5 mmHg | SBP Mean ([1]; time 30 min): 124.2 mmHg | DBP ([1]; time 30 min): 88 mmHg and 77 mmHg and 93 mmHg and 89 mmHg and 94 mmHg and 74 mmHg | SBP ([1]; time 30 min): 119 mmHg and 101 mmHg and 136 mmHg and 139 mmHg and 128 mmHg and 108 mmHg | DBP Mean ([1]; time 40 min): 85.5 mmHg | SBP Mean ([1]; time 40 min): 122.0 mmHg | DBP ([1]; time 40 min): 88 mmHg and 76 mmHg and 92 mmHg and 95 mmHg and 75 mmHg | SBP ([1]; time 40 min): 122 mmHg and 106 mmHg and 134 mmHg and 136 mmHg and 128 mmHg and 108 mmHg | DBP Mean ([1]; time 50 min): 85.7 mmHg | SBP Mean ([1]; time 50 min): 122.3 mmHg | DBP ([1]; time 50 min): 96 mmHg and 81 mmHg and 89 mmHg and 84 mmHg and 93 mmHg and 77 mmHg | SBP ([1]; time 50 min): 134 mmHg and 110 mmHg and 130 mmHg and 135 mmHg and 125 mmHg | DBP Mean ([1]; time 60 min): 86.7 mmHg | SBP Mean ([1]; time 60 min): 124.0 mmHg | DBP ([1]; time 60 min): 98 mmHg and 83 mmHg and 88 mmHg and 82 mmHg and 93 mmHg and 75 mmHg | SBP ([1]; time 60 min): 135 mmHg and 112 mmHg and 129 mmHg and 126 mmHg and 108 mmHg | DBP Mean ([1]; time 70 min): 86.3 mmHg | SBP Mean ([1]; time 70 min): 123.7 mmHg | DBP ([1]; time 70 min): 96 mmHg and 86 mmHg and 80 mmHg and 93 mmHg and 77 mmHg | SBP ([1]; time 70 min): 134 mmHg and 115 mmHg and 127 mmHg and 128 mmHg and 125 mmHg and 113 mmHg | DBP Mean ([1]; time 80 min): 86.8 mmHg | SBP Mean ([1]; time 80 min): 124.5 mmHg | DBP ([1]; time 80 min): 97 mmHg and 87 mmHg and 86 mmHg and 82 mmHg and 93 mmHg and 76 mmHg | SBP ([1]; time 80 min): 134 mmHg and 115 mmHg and 126 mmHg and 131 mmHg and 125 mmHg and 116 mmHg | EC50 [2]: 4.37 nM | Emax ([2]; CHO-K1, read-out: Emax (%) ± SEM, agonist mode): 76 ± 1.7% | higher potency than 5-HT ([2]; cAMP inhibition): 2.6 fold | lower efficacy than 5-HT ([2]; cAMP inhibition): 1.3 fold | plasma glucose level vs. control [3]: did not influence the plasma glucose level | plasma level of total cholesterol vs. control [3]: increased significantly | plasma level of triglycerides vs. control [3]: increased significantly | PDE4B inhibitory activity [4]: did not induce PDE4B and PDE10A inhibitory activity
